According to Sander's compilation of Henry's law constants:
Each block holds one compound with its values, some of them ahead of it.

Assay: Henry solubility constant Hcp at 298.15 K (mol/(m3 Pa))
[1] = reference: Buttery et al. (1965)
[2] = reference: Hovorka et al. (2019)
[3] = reference: Schuhfried et al. (2011)
[4] = reference: Brockbank et al. (2013)
[5] = reference: Wetlaufer et al. (1964)
[6] = reference: Christie and Crisp (1967)
[7] = reference: Wieland et al. (2015)
[8] = reference: Copolovici and Niinemets (2005)
[9] = reference: Buttery et al. (1971)
[10] = reference: Butler and Ramchandani (1935)
[11] = reference: Warner et al. (1980)
[12] = reference: Cetin and Odabasi (2005)

Henry solubility constant Hcp (reference: Amoore and Buttery (1978)): 1.6
SMILES: C1=NCCC1 [1-pyrroline]

Henry solubility constant Hcp (reference: Jönsson et al. (1982)): 4.2e-06
Henry solubility constant Hcp (reference: Park et al. (1997)): 5.5e-06
SMILES: CCCCCCC [heptane]

Henry solubility constant Hcp [1]: 0.075
SMILES: CCCCCCCC=O [octanal]

Henry solubility constant Hcp (reference: Chai et al. (2005)): 0.086
Henry solubility constant Hcp [2]: 0.099
Henry solubility constant Hcp (reference: Straver and de Loos (2005)): 0.11
SMILES: CCCCC(C)=O [2-hexanone]

Henry solubility constant Hcp (reference: Hwang et al. (2010)): 0.0031
SMILES: C=COCCC [propyl vinyl ether]

Henry solubility constant Hcp (reference: Kim and Kim (2016)): 15
SMILES: CCCCCCC(=O)O [heptanoic acid]

Henry solubility constant Hcp [4]: 0.0027
SMILES: Cc1ccc(Cl)cc1Cl [2,4-dichloro-1-methylbenzene]

Henry solubility constant Hcp (reference: Ioffe et al. (1984)): 0.052
SMILES: CCC(=O)OC [methyl propanoate]

Henry solubility constant Hcp (reference: Shoor et al. (1969)): 5.5e-06
Henry solubility constant Hcp [5]: 6.3e-06
SMILES: CC(C)(C)C [dimethylpropane]

Henry solubility constant Hcp [7]: 2.9
SMILES: CCc1ncc(C)nc1C [2-ethyl-3,5-dimethylpyrazine]

Henry solubility constant Hcp (reference: Khan and Brimblecombe (1992)): 13
Henry solubility constant Hcp (reference: Khan et al. (1995)): 13
Henry solubility constant Hcp (reference: Kim and Kim (2016)): 9.9
Henry solubility constant Hcp (reference: von Hartungen et al. (2004)): 7.5
SMILES: CCCCCC(=O)O [hexanoic acid]

Henry solubility constant Hcp [8]: 0.00018
SMILES: CC1=CCC(C(C)C)C=C1 (stereo not drawn) [α-phellandrene]

Henry solubility constant Hcp [9]: 0.2
SMILES: COc1nccnc1CC(C)C [2-isobutyl-3-methoxypyrazine]

Henry solubility constant Hcp [6]: 0.37
SMILES: CCCCCCN [1-hexanamine]

Henry solubility constant Hcp (reference: Nguyen (2013)): 4300
SMILES: CN(C)CCOCCO [dimethylaminoethoxyethanol]

Henry solubility constant Hcp [8]: 0.00038
SMILES: CC1=CCC(=C(C)C)CC1 [1-methyl-4-(1-methylethylidene)-cyclohexene]

Henry solubility constant Hcp (reference: Aprea et al. (2007)): 0.011
SMILES: CCCCCCCC(=O)OCC [ethyl octanoate]

Henry solubility constant Hcp [9]: 2
SMILES: CC(C)Cc1cnccn1 [2-isobutylpyrazine]

Henry solubility constant Hcp (reference: Allen et al. (1998)): 0.97
Henry solubility constant Hcp (reference: Betterton (1991)): 1.1
SMILES: CC(=O)c1ccccc1 [1-phenylethanone]

Henry solubility constant Hcp (reference: Aprea et al. (2007)): 0.019
SMILES: CCCCCC(=O)OC [methyl hexanoate]

Henry solubility constant Hcp (reference: Nguyen (2013)): 200
SMILES: CN1CCN(C)CC1 [N,N'-dimethylpiperazine]

Henry solubility constant Hcp (reference: Souchon et al. (2004)): 0.014
SMILES: CCCCCCOC(C)=O [hexyl ethanoate]

Henry solubility constant Hcp (reference: Nguyen (2013)): 1400
SMILES: CC(N)CN (centres undefined) [1,2-diaminopropane]

Henry solubility constant Hcp (reference: Nguyen (2013)): 6100
SMILES: NCCOCCO [diglycolamine]

Henry solubility constant Hcp (reference: Hartkopf and Karger (1973)): 0.0022
SMILES: CCCOCCC [dipropyl ether]

Henry solubility constant Hcp (reference: Hawthorne et al. (1985)): 0.82
SMILES: O=C1CCCCC1 [cyclohexanone]

Henry solubility constant Hcp [7]: 0.011
SMILES: CCOC(=O)CC(C)C [ethyl 3-methylbutanoate]

Henry solubility constant Hcp (reference: Dohányosová et al. (2004)): 1.6e-05
SMILES: C[C@@H]1CCCC[C@H]1C (relative stereo) [trans-1,2-dimethylcyclohexane]

Henry solubility constant Hcp (reference: Aprea et al. (2007)): 0.014
SMILES: CCCCCCCCCC(=O)OCC [ethyl decanoate]

Henry solubility constant Hcp (reference: McFall et al. (2020)): 410
SMILES: CCOCc1ccc(O)c(OC)c1 [vanillyl ethyl ether]

Henry solubility constant Hcp (reference: Fichan et al. (1999)): 0.36
SMILES: CC1(C)[C@H]2CC[C@](C)(C2)[C@H]1O [(1R)-1,3,3-trimethylbicyclo[2.2.1]heptan-2-ol]

Henry solubility constant Hcp (reference: Reichl (1995)): 3.1e-06
SMILES: FC(F)(F)C(F)(F)Cl [chloropentafluoroethane]

Henry solubility constant Hcp (reference: Pollien et al. (2003)): 0.0089
Henry solubility constant Hcp (reference: Roberts and Pollien (1997)): 0.027
SMILES: CCOC(=O)C(C)CC (centres undefined) [ethyl 2-methylbutanoate]

Henry solubility constant Hcp (reference: Bissonette et al. (1990)): 0.0029
SMILES: C=Cc1ccccc1 [ethenylbenzene]

Henry solubility constant Hcp (reference: Chai et al. (2005)): 0.068
Henry solubility constant Hcp (reference: Kim et al. (2000)): 0.062
SMILES: CCCCCC(C)=O [2-heptanone]

Henry solubility constant Hcp (reference: Haimi et al. (2006)): 0.00077
SMILES: CCOC(C)(C)CC(C)(C)C [2-ethoxy-2,4,4-trimethylpentane]

Second part, the compound before the results:

SMILES: CC(=O)C(F)(F)F [1,1,1-trifluoro-2-propanone]
Henry solubility constant Hcp (reference: Betterton (1991)): 1.4

SMILES: C=CCSC [allyl methyl sulfide]
Henry solubility constant Hcp [3]: 0.0042

SMILES: FC(F)(F)C(F)(F)F [hexafluoroethane]
Henry solubility constant Hcp (reference: Bonifácio et al. (2001)): 6.5e-07
Henry solubility constant Hcp (reference: Park et al. (1982)): 5.3e-07
Henry solubility constant Hcp (reference: Wen and Muccitelli (1979)): 5.6e-07

SMILES: C1CN(CCOCCN2CCOCC2)CCO1 [dimorpholinodiethyl ether]
Henry solubility constant Hcp (reference: Nguyen (2013)): 1800

SMILES: Clc1cccc(Cl)c1Cl [1,2,3-trichlorobenzene]
Henry solubility constant Hcp [4]: 0.0063

SMILES: CCSC [ethyl methyl sulfide]
Henry solubility constant Hcp [3]: 0.0042

SMILES: FN(F)N(F)F [dinitrogen tetrafluoride]
Henry solubility constant Hcp (reference: Dean et al. (1973)): 8.4e-06

SMILES: O=C(O)CCCC(=O)O [pentanedioic acid]
Henry solubility constant Hcp (reference: Mentel et al. (2004)): 1.9e+07

SMILES: O[Si](O)(O)O [silicic acid]
Henry solubility constant Hcp (reference: Plyasunov (2012)): 2.3e+10

SMILES: CN [methanamine]
Henry solubility constant Hcp [6]: 0.89

SMILES: BrC(Br)C(Br)Br [1,1,2,2-tetrabromoethane]
Henry solubility constant Hcp (reference: Khalfaoui and Newsham (1994a)): 0.01

SMILES: Clc1ccc2c(c1)Oc1ccc(Cl)cc1O2 [2,7-dichlorodibenzo-p-dioxin]
Henry solubility constant Hcp (reference: Santl et al. (1994)): 0.17

SMILES: FC(F)C(F)(F)F [pentafluoroethane]
Henry solubility constant Hcp (reference: Miguel et al. (2000)): 0.00031
Henry solubility constant Hcp (reference: Reichl (1995)): 3.5e-05

SMILES: Cc1cc(C)nc(Nc2ccccc2)n1 [pyrimethanil]
Henry solubility constant Hcp (reference: Feigenbrugel and Le Calvé (2021)): 340

SMILES: CC(=O)CC(C)C [4-methyl-2-pentanone]
Henry solubility constant Hcp [2]: 0.065
Henry solubility constant Hcp (reference: Kim et al. (2000)): 0.039

SMILES: CCN [ethanamine]
Henry solubility constant Hcp [10]: 0.99
Henry solubility constant Hcp [6]: 0.8

SMILES: OCC(F)(F)F [2,2,2-trifluoroethanol]
Henry solubility constant Hcp (reference: Chen et al. (2003)): 0.47
Henry solubility constant Hcp (reference: Rochester and Symonds (1973)): 0.58

SMILES: O=[N+]([O-])c1ccccc1O [2-nitrophenol]
Henry solubility constant Hcp (reference: Guo and Brimblecombe (2007)): 1.4
Henry solubility constant Hcp (reference: Harrison et al. (2002)): 0.83
Henry solubility constant Hcp (reference: Müller and Heal (2001)): 0.89

SMILES: O=C(O)C(F)(F)C(F)(F)F [perfluoropropanoic acid]
Henry solubility constant Hcp (reference: Kwan (2001)): 8.8

SMILES: CC(CCl)OC(C)CCl (centres undefined) [bis-(2-chloroisopropyl) ether]
Henry solubility constant Hcp (reference: Kawamoto and Urano (1989)): 0.42

SMILES: ClC1=C(Cl)C2(Cl)C3C(Cl)C=CC3C1(Cl)C2(Cl)Cl (centres undefined) [heptachlor]
Henry solubility constant Hcp [11]: 0.0067

SMILES: CN=C=S [methyl isothiocyanate]
Henry solubility constant Hcp (reference: Worthington and Wade (2007)): 0.16

SMILES: CCC[N+](=O)[O-] [1-nitropropane]
Henry solubility constant Hcp (reference: Beneš and Dohnal (1999)): 0.13

SMILES: CCCC [butane]
Henry solubility constant Hcp (reference: Ben-Naim and Battino (1985)): 1.2e-05
Henry solubility constant Hcp (reference: Carroll et al. (1997)): 1.3e-05
Henry solubility constant Hcp (reference: McAuliffe (1963)): 1.1e-05
Henry solubility constant Hcp (reference: Morrison and Billett (1952)): 1.1e-05
Henry solubility constant Hcp [5]: 1.3e-05

SMILES: CC(C)(C)CC(C)(C)c1ccc(O)cc1 [4-(1,1,3,3-tetramethylbutyl)-phenol]
Henry solubility constant Hcp (reference: Xie et al. (2004)): 2.3

SMILES: ClC1=C(Cl)C2(Cl)C3C4OC4C(Cl)C3C1(Cl)C2(Cl)Cl (centres undefined) [heptachlorepoxide]
Henry solubility constant Hcp [11]: 0.31

SMILES: O=NCl [nitrosyl chloride]
Henry solubility constant Hcp (reference: Scheer et al. (1997)): > 0.00049

SMILES: OCC(O)CO [1,2,3-propanetriol]
Henry solubility constant Hcp [10]: 580

SMILES: O=[N+]([O-])c1ccccc1 [nitrobenzene]
Henry solubility constant Hcp [11]: 0.41

SMILES: BrCCCCCCCCBr [1,8-dibromooctane]
Henry solubility constant Hcp (reference: Sarraute et al. (2006)): 0.013

SMILES: Brc1ccc(Oc2ccc(Br)cc2Br)c(Br)c1 [2,2',4,4'-tetrabromodiphenyl ether]
Henry solubility constant Hcp [12]: 0.87
Henry solubility constant Hcp (reference: Charles and Destaillats (2005)): 0.17
Henry solubility constant Hcp (reference: Long et al. (2017)): 0.91

SMILES: Brc1c(Br)c(Br)c(Oc2c(Br)c(Br)c(Br)c(Br)c2Br)c(Br)c1Br [decabromodiphenyl ether]
Henry solubility constant Hcp [12]: 18
Henry solubility constant Hcp (reference: Long et al. (2017)): 18

SMILES: [CH3][Hg+].[OH-] [hydroxymethylmercury]
Henry solubility constant Hcp (reference: Iverfeldt and Persson (1985)): 980

SMILES: CCC(CC)O[N+](=O)[O-] [3-pentyl nitrate]
Henry solubility constant Hcp (reference: Hauff et al. (1998)): 0.0038

SMILES: ClC1C(Cl)C(Cl)C(Cl)C(Cl)C1Cl (stereo not drawn) [α-1,2,3,4,5,6-hexachlorocyclohexane]
Henry solubility constant Hcp (reference: Kucklick et al. (1991)): 1.3
Henry solubility constant Hcp (reference: Sahsuvar et al. (2003)): 1.7

SMILES: CCCC=O [butanal]
Henry solubility constant Hcp [1]: 0.064
Henry solubility constant Hcp (reference: Ji and Evans (2007)): 0.089

SMILES: FC(Cl)C(F)(F)F (centres undefined) [1-chloro-1,2,2,2-tetrafluoroethane]
Henry solubility constant Hcp (reference: Kutsuna (2013)): 0.00011
Henry solubility constant Hcp (reference: Maaßen (1995)): 0.0001
Henry solubility constant Hcp (reference: Reichl (1995)): 0.00011

SMILES: Brc1cc(Br)c(Oc2cc(Br)c(Br)cc2Br)cc1Br [2,2',4,4',5,5'-hexabromodiphenyl ether]
Henry solubility constant Hcp [12]: 3.5
Henry solubility constant Hcp (reference: Long et al. (2017)): 3.7
